Laboratory results: patent publication US7541379B2, “Di(amido-substituted)heteroarene compounds as osteoblastogenesis agents” (The University of Hong Kong, priority 2005, dated 2009)
Entries after “also recorded” stand apart in the source; their conditions may differ.

How the values were obtained:
[1] = Cytotoxicity by standard MTT assay on Vero cells; type: cell-based, African green monkey; conditions: African green monkey, MTT assay, read-out: TC50 (the source's name)
Method: (§1) Cytotoxicity assay. Vero cells, an African green monkey cell line were purchased from American Type Culture Collection (ATCC) and Cell Proliferation Kit I MTT (3-[4,5-dimethylth-iazol-2-yl]-2,5-diphenyltetrazolium bromide) assay was purchased from Roche. Normal human lung fibroblast cell line (CCD-19Lu) was obtained commercially from ATCC. CCD-19Lu cells were maintained in a minimum essential medium with Earle's balanced salts (MEM). The media were supplemented with L-glutamine (2 mM), fetal bovine serum (10%), penicillin (100 U/mL) and streptomycin (100 μg/mL). Cultures were incubated at 37° C. in a 5% CO2/95% air humidified atmosphere. Cell culture flasks and 96-well microtitre plates were purchased from Nalge Nunc Int. Culture medium, other medium constituents and phosphate buffered saline (PBS) were from Gibco BRL.
(§2) The cytotoxicity of selected compounds was determined by MTT according to manufacturer's (Roche) instructions. The experiment (cell viability using MTT as an indicator) was carried out in triplicates. The TC50 (on Vero cells, an African green monkey cell line) is ca. 50 μM, it is concluded that these compounds may be useful for osteoblastogenesis development.

[2] = test system: African green monkey Vero cells; assay: Cytotoxicity by standard MTT assay on Vero cells; type: cell-based
Method: as §1, §2

[3] = test system: MC3T3-E1 (clone 4) cells; assay: Bone nodule formation and mineralization (Alizarin red stain); type: cell-based; conditions: 0.01 to 1 μg/mL, 26 days, osteogenic conditions
Method: Cells were washed twice with ice-cold PBS and then fixed in ice-cold fixative (10% formalin in PBS) for 15 min. After washed with deionized water, fixed cells were stained with 1% alizarin S solution, pH 4.2 for 15 min and then were washed thoroughly with deionized water. Mineralized matrix was then detected.

[4] = test system: ALP mRNA; assay: ALP mRNA expression by real-time quantitative RT-PCR in MC3T3-E1 (clone 4) cells; type: cell-based; conditions: 4 days, osteogenic medium
Method: (§3) Cell culture. MC3T3-E1 (clone 4) cells ([…], Manassas, Va., U.S.A.) were maintained in complete growth medium, i.e., alpha-MEM supplemented with 100 U/mL penicillin, 100 μg/mL streptomycin, and 10% heat-inactivated fetal bovine serum (JRH Biosciences, Lenexa, Kans., U.S.A. Ascorbic acid (AsA) and β-glycerophosphate (β-GP) were purchased from Sigma-Aldrich Co. (St. Louis, […]., U.S.A.). For the screening of osteoblastogenesis-inducing compounds, cells were plated in 24-well plates in complete growth medium at 5×10^4 cells/cm^2 and after overnight incubation, potential osteoblastogenesis modulating agents were added at 3 different concentrations, each with 10 fold difference. […]
(§4) Real-time quantitative reverse transcription (RT) PCR. […] ALP and osterix mRNA expression was determined by RT followed by real-time TaqMan PCR analysis. […] All PCR reactions were performed in triplicate and data obtained were analyzed using the comparative CT method (Applied Biosystems) with ALP/osterix signals normalized to 18S signal for each sample.
MC3T3-E1 (clone 4) cells were cultured for 4 days, and total RNA was extracted. […] Expression level of osterix expression in MC3T3-E1 (clone 4) cells was determined using Real-Time TaqMan polymerase chain reaction (PCR). […]

[5] = test system: CCD-19L cells; assay: Cytotoxicity by MTT assay on CCD-19L cells (vs vehicle control); type: cell-based, human; conditions: 72 h
Text: As used herein, the term “CCD-19L cells” described herein refers to normal human lung fibroblast cell line.
as §1
Assays on cytotoxic effects were conducted in 96-well flat-bottomed microtitre plates. […] The formation of formazan was measured with a microtitre plate reader at 550 nm and the percentages of cell survival were determined. The cytotoxicity was evaluated based on the percentage cell survival in a dose dependent manner relative to the negative control (FIG. 8).

[6] = test system: ALP; assay: ALP enzyme activity assay (PNPP hydrolysis) in MC3T3-E1 (clone 4) cells; type: cell-based
Method: Cell culture. […]
ALP assay. ALP activity was measured as p-nitrophenol produced from the hydrolysis of p-nitrophenyl phosphate (PNPP). […] The reaction was stopped by the addition of NaOH (final concentration, 0.5 M) and the absorbance was measured at 410 nm. Enzyme activity was normalized to the protein content determined using Protein Assay Kit (Bio-Rad). […]
MC3T3-E1 (clone 4) cells were cultured for 4, 10, and 14 days with the presence of VCM supplemented with different concentrations (range from 0.01 to 1 μg/mL) of di(amido-substituted)heteroarene compounds. […] ALP activity was measured as p-nitrophenol produced from the hydrolysis of p-nitrophenyl phosphate (PNPP). […] The reaction was stopped by the addition of NaOH (final concentration, 0.5 M) and the absorbance measured at 410 nm. Enzyme activity was normalized to the protein content determined using Protein Assay Kit (Bio-Rad). […]

[7] = test system: osterix mRNA; assay: Osterix mRNA expression by real-time quantitative RT-PCR in MC3T3-E1 (clone 4) cells; type: cell-based; conditions: 1 μg/mL (high concentrations), 4 days, osteogenic medium
Method: as §3, §4
MC3T3-E1 (clone 4) cells were cultured for 4 days, and total RNA was extracted. […] Expression level of osterix expression in MC3T3-E1 (clone 4) cells was determined using Real-Time TaqMan PCR. […]

[8] = test system: MC3T3-E1 (clone 4) cells; assay: MTT-based cell proliferation assay; conditions: 0.01 to 1 μg/mL, 2 days, osteogenic medium
Method: Cell proliferation assay. Cell proliferation studies were performed as previously described using MTT-based (GE Healthcare, Piscataway, N.J., USA) cell proliferation assays (Cheung et a/, FEBS Lett (2006), 580, 121). After treatment with potential osteoblastogenesis modulating agents for 2 days, MTT was added at a final concentration of 0.5 mg/ml for 3 h, cells were solubilized with isopropanol containing 0.1% sodium dodecyl sulfate and 0.04 N hydrochloric acid, and the absorbance measured at 570 nm. All experiments were repeated three times.
Cell proliferation studies were performed as previously described using MTT (GE Healthcare, Piscataway, N.J., USA) assays (Cheung et al, FEBS Lett (2006), 580, 121). After treatment with the candidate compounds (concentrations 0.01 to 1 μg/mL) for 2 days, MTT was added at a final concentration of 0.5 mg/ml for 3 h, cells were solubilized with isopropanol containing 0.1% sodium dodecyl sulfate and 0.04 N hydrochloric acid, and the absorbance measured at 570 nm. All experiments were repeated three times.

## Cc1ccc(S(=O)(=O)Nc2cn(C)cc2NS(=O)(=O)c2ccc(C)cc2)cc1 [compound 1]
[1]
  CC50: 57 µM
[2]; MTT assay, read-out: TC50 (the source's name)
  CC50: ≤ 57 µM
[2]; standard MTT assay
  cytotoxicity on Vero cells: low cytotoxicity
[3]
  effect on mineralization of bone nodules: potentiated mineralization of bone nodules
[4]; 0.1 μg/mL
  ALP mRNA expression up-regulated: 16%
[4]; 0.1 and 1 μg/mL
  effect on ALP mRNA expression: enhanced ALP mRNA expression
[5]
  cytotoxicity on CCD-19L cells: low cytotoxicity
[6]; 0.01 to 1 μg/mL, osteogenic medium, 4, 10 and 14 days
  effect on ALP enzyme activity: significantly enhanced ALP enzyme activity in a dose-dependent manner
[6]; 14 days of treatment, 0.1 μg/mL, osteogenic medium
  ALP activity up-regulated compared to the control: 2 fold
[7]
  effect on osterix mRNA expression: effectively up-regulated mRNA expression of osterix; also recorded: enhanced osterix mRNA expression
[8]
  effect on cell proliferation (MTT): did not alter
